In article PMC6264423, “Phytochemical and Cytotoxic Investigations of Curcuma mangga Rhizomes” (Molecules, 2011):
In brackets after ≈: the same amount, converted by molar mass.

Legend:
[1] = system: hormone-dependent breast cell line (MCF-7); test: in-vitro neutral red cytotoxicity assay, MCF-7; format: cell-based; settings: Homo sapiens, MCF7, mean ± SD of three replicates
Description: (§1) In-vitro neutral red cytotoxicity assay: All cancer cell lines were purchased from the American Type Culture Collection (ATCC, USA), medium like RPMI 1640, McCOY’S 5A, Eagle Minimum Essential Medium (EMEM) from Sigma-Aldrich, USA. The supplements or antibiotics such as foetal bovine serum, penicillin/streptomycin (100 μg/mL), amphotericin B (50 μg/mL), tripsin-EDTA (100X) were purchased from PAA Lab, Austria as well as sodium pyruvate (11 mg/mL) from Sigma-Aldrich, USA. The cells were cultured in a Shel Lab water-jacketed CO2 incubator with 25 cm^3 tissue culture flasks (Nunc, Denmark), which was observed routinely under inverted microscope (Leica DMI3000 B, Germany) for any contamination and seeded into 96-well flat bottom microtiter plate (Nunc, Denmark). The extract or pure compounds were dissolved in dimethyl sulfoxide (DMSO, Molecular Biology Grade, >99.9%) from Sigma-Aldrich, USA. The 96-well microtiter plate was agitated rapidly on a microtiter plate incubator shaker (LT Biomax 500) and absorbance of eluted dye measured at 540 nm using a ELISA microplate reader (EMax microplate reader of Molecular Devices, USA). Cell lines such as MCF-7, A549, Ca Ski and HT-29 were maintained in RPMI 1640 medium, HCT 116 in McCOY’S 5A Medium, KB and MRC-5 cells in Eagle Minimum Essential Medium (EMEM). All of these media were supplemented with 10% foetal bovine serum (FBS), penicillin/streptomycin, amphotericin B and only additional sodium pyruvate in EMEM. The cells were cultured in tissue culture flask in 5% CO2 incubator kept at 37 °C in a humidified atmosphere and observed routinely under inverted microscope from any contaminations. Each fresh medium was replaced every 2 or 3 days until cell confluence was achieved and the cells were detached by using tripsin-EDTA.

[2] = system: nasopharyngeal epidermoid cell line (KB); test: in-vitro neutral red cytotoxicity assay, KB; format: cell-based; settings: Homo sapiens, mean ± SD of three replicates
Description: as §1

lung cell line (A549) = test: in-vitro neutral red cytotoxicity assay, A549; format: cell-based; settings: Homo sapiens, mean ± SD of three replicates
Description: as §1

[3] = system: cervical cell line (Ca Ski); test: in-vitro neutral red cytotoxicity assay, Ca Ski; format: cell-based; settings: Homo sapiens, mean ± SD of three replicates
Description: as §1

[4] = system: colon cell line (HCT 116); test: in-vitro neutral red cytotoxicity assay, HCT 116; format: cell-based; settings: Homo sapiens, mean ± SD of three replicates
Description: as §1

colon cell line (HT-29) = test: in-vitro neutral red cytotoxicity assay, HT-29; format: cell-based; settings: Homo sapiens, mean ± SD of three replicates
Description: as §1

[5] = system: non-cancer human fibroblast cell line (MRC-5); test: in-vitro neutral red cytotoxicity assay, MRC-5; settings: MRC5, read-out: IC50 values, MRC-5
Description: as §1

[6] = system: human cancer cell lines (MCF-7, KB, A549, Ca Ski, HCT 116, HT-29); test: in-vitro neutral red cytotoxicity assay, panel of six cancer cell lines; format: cell-based
Description: In-vitro neutral red cytotoxicity assay: All cancer cell lines were purchased from the American Type Culture Collection (ATCC, USA), medium like RPMI 1640, McCOY’S 5A, Eagle Minimum Essential Medium (EMEM) from Sigma-Aldrich, USA. The supplements or antibiotics such as foetal bovine serum, penicillin/streptomycin (100 μg/mL), amphotericin B (50 μg/mL), tripsin-EDTA (100X) were purchased from PAA Lab, Austria as well as sodium pyruvate (11 mg/mL) from Sigma-Aldrich, USA. The cells were cultured in a Shel Lab water-jacketed CO2 incubator with 25 cm^3 tissue culture flasks (Nunc, Denmark), which was observed routinely under inverted microscope (Leica DMI3000 B, Germany) for any contamination and seeded into 96-well flat bottom microtiter plate (Nunc, Denmark). The extract or pure compounds were dissolved in dimethyl sulfoxide (DMSO, Molecular Biology Grade, >99.9%) from Sigma-Aldrich, USA. The 96-well microtiter plate was agitated rapidly on a microtiter plate incubator shaker (LT Biomax 500) and absorbance of eluted dye measured at 540 nm using a ELISA microplate reader (EMax microplate reader of Molecular Devices, USA). Cell lines such as MCF-7, A549, Ca Ski and HT-29 were maintained in RPMI 1640 medium, HCT 116 in McCOY’S 5A Medium, KB and MRC-5 cells in Eagle Minimum Essential Medium (EMEM). […]

[7] = system: non-cancer human fibroblast cell line (MRC-5)
Description: as §1

Molecule	IC50 [1] [µg/mL]	IC50 [2] [µg/mL]	IC50 (lung cell line (A549)) [µg/mL]	IC50 [3] [µg/mL]	IC50 [4] [µg/mL]	IC50 (colon cell line (HT-29)) [µg/mL]	IC50 [5] [µg/mL]	cytotoxic activity on the investigated human cancer cell lines (in words) ([6]; all investigated human cancer cell lines)	IC50 ([6]; Homo sapiens, span over the six cancer cell lines, read-out: IC50 values across all tested human cancer cell lines) [µg/mL]	effect on the normal human fibroblast cell line (in words) [7]
C=C1CC[C@H]2C(C)(C)CCC[C@]2(C)[C@H]1CC=C(C=O)CC(=O)O (stereo in doubt) [Compound 3, zerumin A]	8.7 ± 0.29 (≈ 27.3 µM)	11.7 ± 1.15 (≈ 36.7 µM)	9.2 ± 0.62 (≈ 28.9 µM)	14.2 ± 0.06 (≈ 44.6 µM)	9.3 ± 0.5 (≈ 29.2 µM)	14.9 ± 0.4 (≈ 46.8 µM)	16.2 ± 0.25 (≈ 50.9 µM)	–	–	–
C=C1CCC2C(C)(C)CCC[C@]2(C)C1C/C=C(/C=O)CC=O (stereo partly shown) [Compound 1, (E)-labda-8(17),12-dien-15,16-dial]	4.3 ± 1.3 (≈ 14.2 µM)	14.5 ± 0.87 (≈ 47.9 µM)	19.9 ± 0.38 (≈ 65.8 µM)	12.1 ± 0.35 (≈ 40 µM)	7.6 ± 0.23 (≈ 25.1 µM)	6.3 ± 0.26 (≈ 20.8 µM)	8.9 ± 0.49 (≈ 29.4 µM)	–	–	–
C=C1CCC2C(C)(C)CCC[C@]2(C)C1/C=C/C(C)=O (stereo partly shown) [Compound 2, (E)-15,16-bisnorlabda-8(17),11-dien-13-one]	> 100	> 100	> 100	> 100	> 100	> 100	> 100	no cytotoxic activity	–	–
COc1cccc2c1C(=O)c1c(O)c3c(c(O)c1C2=O)C[C@@](O)(C(=O)CO)C[C@@H]3O[C@H]1C[C@H](N)[C@H](O)[C@H](C)O1 [Doxo *, Doxorubicin, reference compound]	0.05 ± 0.01 (≈ 0.092 µM)	0.27 ± 0.01 (≈ 0.497 µM)	0.58 ± 0.01 (≈ 1.07 µM)	0.18 ± 0.06 (≈ 0.331 µM)	0.24 ± 0.04 (≈ 0.442 µM)	0.33 ± 0.03 (≈ 0.607 µM)	0.4 ± 0.03 (≈ 0.736 µM)	–	0.05 to 0.58 (≈ 0.092 to 1.07 µM)	–
Ethyl acetate	–	–	–	–	–	–	–	–	–	caused no damage
